Laboratory results from US7879792B2, “Synthetic peptide inhibitors of thrombin and thrombin activation of protease activated receptors 1 and 4” (The Regents of the University of Michigan, priority 2005, dated 2011).
Where a SMILES comes first, the peptide text is derived from it.

Experiments:
[1] = molecular target: T1, recombinant extracellular domain of human PAR1 (rPAR1EC) (Homo sapiens, UniProt P25116); assay: inhibition of RPPGFK-biotin binding to rPAR1EC; details: 15 μM RPPGFK-biotin
T1 construct: A portion of the extracellular domain of human PAR1 (Ala^26-Ser^99) (rPAR1EC) was expressed in Escherichia coli; KSI fusion protein (cleaved yes); His tag (cleaved yes); made in house; host or cells: E. coli BL21(DE3), pET31b
T1 sequence (P25116 26-99): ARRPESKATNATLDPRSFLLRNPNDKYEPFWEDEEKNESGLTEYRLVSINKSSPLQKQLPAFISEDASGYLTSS

[2] = system: γ-thrombin-induced platelet aggregation; assay: γ-thrombin-induced platelet aggregation in human platelet-rich plasma; type: cell-based; details: for Concentration of Peptide [mM] That Gives 100% Inhibition: 40 nM human gamma thrombin, human platelet-rich plasma
Description: Fresh whole blood was collected and mixed with 0.013 M sodium citrate and platelet-rich plasma was prepared according to the method of Meloni et al., J. Biol. Chem. 266, 6786 (1991). Platelet-rich plasma with a normalized platelet count between 2-2.5×10^8 platelets/ml was added to a cuvette of an aggregometer (Chronlog Corp., Havertown, Pa.), standardized using the protocol of Meloni et al., supra. Peptides to be examined were added to the cuvette and the mixture stabilized for a few moments. Once the baseline was stabilized, γ-thrombin (10-70 nM) (Haematologic Technologies, Essex Junction, Vt.) was added to determine the minimal concentration of the agonist necessary to achieve full platelet aggregation. All investigations with peptides were performed using threshold concentrations of γ-thrombin. Aggregation was allowed to proceed for 5 minutes before stopping.
Table III is a tabulation of the library of peptides prepared and their influence on γ-thrombin-induced platelet aggregation in platelet-rich plasma. […] The numbers in the column represent the minimal concentration (mM) of the peptide that blocked 100% γ-thrombin-induced platelet aggregation of platelets in human platelet-rich plasma.
Human platelet samples were stimulated with 40 nM human gamma thrombin in each experiment.

[3] = molecular target: T2, recombinant extracellular domain of human PAR4 (rPAR4EC) (Homo sapiens, UniProt Q96RI0); assay: inhibition of RPPGFK-biotin binding to rPAR4EC; details: 15 μM RPPGFK-biotin
T2 construct: starting with Gly^18, the first amino acid after the signal peptide is removed, and finishing with Arg^78; KSI fusion protein (N, cleaved yes); His-tag (N, cleaved yes); made in house; host or cells: E. coli 'BLD (DE3)' cells, pET31b; cDNA from HEL cell mRNA
T2 sequence (Q96RI0 18-78): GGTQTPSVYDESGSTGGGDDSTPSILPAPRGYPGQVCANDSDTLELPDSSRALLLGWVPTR
Description: Investigations were performed to determine if the compounds in the present invention interact with the exodomain of human PAR4. The extracellular fragment of human PAR4 has been expressed in bacteria. Human erythroleukemia (HEL) cells were used as a source for PAR4 mRNA. The level of PAR4 mRNA was substantially higher in HEL cells than washed human platelets. […] These primers give a 204 basepair fragment which codes for a 61 amino acid hPAR4 protein starting with Gly^18, the first amino acid after the signal peptide is removed, and finishing with Arg^78, the last amino acid of the extracellular fragment (Xu et al. Proc. Natl. Acad. Sci. 95, 6642-6646 (1998)). The pET31b-PAR4 vector after cloning was used to transform BLD (DE3) cells to express the recombinant protein. After IPTG stimulation, the recombinant protein was isolated from the bacterial lysate on a nickel affinity column followed by treatment with CNBr to remove the KSI fusion protein and His-tag on its amino terminal end. The isolated recombinant extracellular domain of PAR4 (rPAREC) is about 9 kDa on 16.5% Tris-Tricine SDS-PAGE. The recombinant protein is recognized as being human PAR4 by detection with an antibody prepared from a peptide (S^41[…]^52) (SEQ ID NO:9) from human PAR4EC. Recombinant PAR4EC was linked to microtiter plate cuvette wells. Goat polyclonal antibody to human PAR1, PAR3, or PAR4 was incubated with the coated microtiter plate cuvette wells and antibody binding was detected. Only antibody to PAR4 detected rPAR4EC linked to the microtiter plate wells. […] These studies indicate that peptides of the present invention also physically interact with human PAR4.

[4] = molecular target: γ-thrombin; assay: inhibition of γ-thrombin hydrolysis of chromogenic substrate; type: biochemical, human; details: read-out: Ki (μM) + SD, γIIa (2 nM); gamma-thrombin 2 nM, Sar-Pro-Arg-paranitroanilide
[5] = system: normal human citrated plasma; assay: activated partial thromboplastin time (APTT); type: biochemical
Description: The influence of the various peptide formulations used in the present invention on established coagulation-based assays was determined. The activated partial thromboplastin time (APTT) is performed by mixing 0.05 ml normal human citrated plasma with 0.05 ml activated partial thromboplastin reagent purchased from Organon Teknika, Research Triangle Park, NC in the absence or presence of a peptide inhibitor. After incubation for 5 min at 37° C., the mixture is recalcified with 0.05 ml of 30 mM calcium chloride and the time to clot formation is measured in an Amelung KC4A instrument (Sigma Chemical Corp, St. Louis, Mo.) (Hasan et al. Thrombosis and Haemostasis. 82, 1182-1187 (1999)). The prothrombin time (PT) is performed by mixing 0.05 ml normal human citrated plasma with 0.05 ml Simplastin (Organon Teknika, Research Triangle Park, NC) followed by incubation for 3 min at 37° C. in the absence or presence of a peptide inhibitor. At the addition of 0.05 ml of 30 mM calcium chloride, the time to clot formation is measured in an KC4A instrument (Sigma Chemical Corp, St. Louis, Mo.) (Hasan et al. Thrombosis and Haemostasis. 82, 1182-1187 (1999)). The thrombin clotting time (TCT) is performed by adding 0.1 ml normal human citrated plasma in the absence or presence of a peptide inhibitor and 0.05 ml of a α-thrombin solution such that the final concentration of the thrombin in the entire mixture was 1 nM. Upon addition of the thrombin, the time to clot formation is measured in an KC4A instrument (Sigma Chemical Corp, St. Louis, Mo.).

| RPPGFK-biotin displaced from rPAR4 exodomain ([3]; 1 μM peptide (so in the source)) | SMILES | RPPGFK-biotin displaced from rPAR1 exodomain ([1]; 1000 μM (1 mM) peptide) | Concentration of Peptide [mM] That Gives 100% Inhibition [2] | RPPGFK-biotin displaced from rPAR1 exodomain ([1]; 30 μM peptide) | RPPGFK-biotin displaced from rPAR1 exodomain ([1]; 300 μM peptide) | Ki [4] | concentration that abolished γ-thrombin-induced platelet aggregation ([2]; 40 nM γ-thrombin) | γ-thrombin-induced platelet aggregation ([2]; 8 μM peptide, 40 nM γ-thrombin) | peptide concentration with significant prolongation (p<0.05) of the APTT [5] | RPPGFK-biotin displaced from rPAR4 exodomain ([3]; 30 μM peptide) | RPPGFK-biotin displaced from rPAR4 exodomain ([3]; 300 μM peptide) | RPPGFK-biotin displaced from rPAR4 exodomain ([3]; 1000 μM peptide) |
| --- | --- | --- | --- | --- | --- | --- | --- | --- | --- | --- | --- | --- |
| 50% | N=C(N)NCCC[C@@H](N)C(=O)N1[C@H](C(=O)N2CCC[C@H]2C(=O)NCC(=O)N[C@@H](Cc2ccccc2)C(N)=O)C[C@@H]2CCCC[C@@H]21 [rOicPGF, D-Arg-Oic-Pro-Gly-Phe, reference compound] (HELM PEPTIDE1{[dR].[O=C([C@@H]1C[C@@H]2CCCC[C@@H]2N1[*:1])[*:2]].P.G.F.[am]}$$$$V2.0) | 50% | 0.142 mM | – | – | – | – | – | – | – | – | – |
| – | Cc1ccc(C[C@H](NC(=O)[C@@H](C)NC(=O)[C@@H]2CCCN2C(=O)[C@@H]2C[C@@H]3CCCC[C@@H]3N2C(=O)[C@H](N)CCCNC(=N)N)C(N)=O)cc1 [rOicPaF(p-Me), D-Arg-Oic-Pro-D-Ala-Phe(p-Me)] (HELM PEPTIDE1{[dR].[O=C([C@@H]1C[C@@H]2CCCC[C@@H]2N1[*:1])[*:2]].P.[dA].[Cc1ccc(C[C@H](N[*:1])C(=O)[*:2])cc1].[am]}$$$$V2.0) | 69% | 0.016 mM | 23% | 52% | 54.3 ± 16 µM | greater than or equal to 16 μM | returned to normal | 1.56 µM | 19% | 49% | 63% |
